The results in this text go back to ChEMBL document CHEMBL1145273, “New cytotoxic bisindole alkaloids with protein tyrosine kinase inhibitory activity from a myxomycete Lycogala epidendrum” (Bioorg Med Chem Lett, 2005).

Molecules are shown by their SMILES. Values after ≈ are worked out from the molar mass of the structure shown.

Assay [1] addresses T1, Eukaryotic elongation factor 2 kinase (Homo sapiens) (UniProt O00418).
T1 sequence (whole entry): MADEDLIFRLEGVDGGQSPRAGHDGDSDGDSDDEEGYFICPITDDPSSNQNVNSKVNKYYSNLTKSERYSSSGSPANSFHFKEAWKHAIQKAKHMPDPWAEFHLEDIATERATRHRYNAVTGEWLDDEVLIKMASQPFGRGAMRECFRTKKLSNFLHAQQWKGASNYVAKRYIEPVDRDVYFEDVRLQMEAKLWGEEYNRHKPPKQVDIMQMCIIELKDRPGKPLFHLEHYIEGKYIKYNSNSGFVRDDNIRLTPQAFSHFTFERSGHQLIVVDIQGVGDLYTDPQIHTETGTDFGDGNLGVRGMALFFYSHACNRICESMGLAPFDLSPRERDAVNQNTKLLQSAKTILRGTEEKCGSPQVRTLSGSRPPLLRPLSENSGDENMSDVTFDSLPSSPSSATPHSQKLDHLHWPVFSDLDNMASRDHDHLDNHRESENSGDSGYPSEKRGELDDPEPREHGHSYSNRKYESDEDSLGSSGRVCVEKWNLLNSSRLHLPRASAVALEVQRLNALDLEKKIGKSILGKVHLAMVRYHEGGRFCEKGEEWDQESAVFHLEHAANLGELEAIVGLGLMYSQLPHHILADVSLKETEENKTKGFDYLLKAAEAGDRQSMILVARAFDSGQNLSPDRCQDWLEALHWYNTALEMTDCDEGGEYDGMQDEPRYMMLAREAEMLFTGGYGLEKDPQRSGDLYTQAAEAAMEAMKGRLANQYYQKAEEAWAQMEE
The assay can be described thus: Inhibition of eukaryotic elongation factor-2 kinase mediated [gamma-32P]-ATP incorporation at 1 ug/mL.

Assay [2] concerns the target T2, cAMP-dependent protein kinase (PKA) (Homo sapiens) (UniProt P22694+P17612+P22612). The assay can be described thus: Inhibition of Protein kinase A mediated [gamma-32P]-ATP incorporation at 0.1 ug/mL. The assay is classed as protein assay.
In assay [3] the target is Proto-oncogene tyrosine-protein kinase Src (Homo sapiens) (UniProt P12931). As to the kind of experiment: Inhibition of protein tyrosine kinase mediated [gamma-32P]-ATP incorporation at 0.1 ug/mL in src-transformed NIH3T3.
The target is the same in assay [4]. As to the kind of experiment: Inhibition of protein tyrosine kinase mediated [gamma-32P]-ATP incorporation at 1 ug/mL in src-transformed NIH3T3.
Assay [5] concerns the target Vascular endothelial growth factor receptor 1 (Homo sapiens) (UniProt P17948). The assay can be described thus: Inhibition of Vascular endothelial growth factor receptor 1 mediated [gamma-32P]-ATP incorporation at 0.1 ug/mL.
Another assay relates to HeLa. The assay can be described thus: Cytotoxicity against HeLa cells. The assay is classed as functional, cell-based. To be noted: Homo sapiens.
The subject of a further assay is Jurkat. The assay can be described thus: Cytotoxicity against Jurkat cells. The assay is classed as functional, cell-based. The note with it: Homo sapiens.
For assay [6], the target named is T3, Protein kinase C (PKC) (Homo sapiens) (UniProt O94806+P41743+P17252+P05129+Q05655+P05771+Q05513+Q02156+P24723+Q15139+Q04759). As to the kind of experiment: Inhibition of Protein kinase C mediated […]-ATP incorporation at 10 ug/mL. In kind it is protein assay.
Assay [7] concerns the target T1, Eukaryotic elongation factor 2 kinase (Homo sapiens). The assay can be described thus: Inhibition of eukaryotic elongation factor-2 kinase mediated [gamma-32P]-ATP incorporation at 10 ug/mL; Range is 50-80.
The nature of assay [8]: Cytotoxicity against KB/VJ300 cells. The note with it: Homo sapiens. The assay is classed as functional, cell-based.
Assay [9] concerns the target T2, cAMP-dependent protein kinase (PKA) (Homo sapiens). The assay can be described thus: Inhibition of Protein kinase A mediated [gamma-32P]-ATP incorporation at 10 ug/mL. In kind it is protein assay.
Assay [10] has as its target Vascular endothelial growth factor receptor 1 (Homo sapiens) (UniProt P17948). The assay can be described thus: Inhibition of Vascular endothelial growth factor receptor 1 mediated [gamma-32P]-ATP incorporation at 1 ug/mL.
For assay [11], the target named is T3, Protein kinase C (PKC) (Homo sapiens). As to the kind of experiment: Inhibition of Protein kinase C mediated […]-ATP incorporation at 1 ug/mL. In kind it is protein assay.
In assay [12] the target is Proto-oncogene tyrosine-protein kinase Src (Homo sapiens) (UniProt P12931). As to the kind of experiment: Inhibition of protein tyrosine kinase mediated [gamma-32P]-ATP incorporation at 10 ug/mL in src-transformed NIH3T3.
Assay [13] has as its target T3, Protein kinase C (PKC) (Homo sapiens). As to the kind of experiment: Inhibition of Protein kinase C mediated […]-ATP incorporation at 0.1 ug/mL. In kind it is protein assay.
The target in assay [14] is T1, Eukaryotic elongation factor 2 kinase (Homo sapiens). As to the kind of experiment: Inhibition of eukaryotic elongation factor-2 kinase mediated [gamma-32P]-ATP incorporation at 0.1 ug/mL.
For assay [15], the target named is Vascular endothelial growth factor receptor 1 (Homo sapiens) (UniProt P17948). As to the kind of experiment: Inhibition of Vascular endothelial growth factor receptor 1 mediated [gamma-32P]-ATP incorporation at 10 ug/mL.
The target in assay [16] is T2, cAMP-dependent protein kinase (PKA) (Homo sapiens). As to the kind of experiment: Inhibition of Protein kinase A mediated [gamma-32P]-ATP incorporation at 1 ug/mL. The assay is classed as protein assay.
Assay [17] deals with Proto-oncogene tyrosine-protein kinase Src (Homo sapiens) (UniProt P12931). The assay can be described thus: Inhibition of protein tyrosine kinase mediated [gamma-32P]-ATP incorporation at 10 ug/mL in src-transformed NIH3T3; range = 50-80%.
The target of assay [18] is T3, Protein kinase C (PKC) (Homo sapiens). As to the kind of experiment: Inhibition of Protein kinase C mediated […]-ATP incorporation at 10 ug/mL; Range is 50 to 80%. In kind it is protein assay.
Assay [19] addresses T1, Eukaryotic elongation factor 2 kinase (Homo sapiens). The assay can be described thus: Inhibition of eukaryotic elongation factor-2 kinase mediated [gamma-32P]-ATP incorporation at 10 ug/mL.

Chain of Proto-oncogene tyrosine-protein kinase Src (Homo sapiens) (P12931 2-536 limits assumed): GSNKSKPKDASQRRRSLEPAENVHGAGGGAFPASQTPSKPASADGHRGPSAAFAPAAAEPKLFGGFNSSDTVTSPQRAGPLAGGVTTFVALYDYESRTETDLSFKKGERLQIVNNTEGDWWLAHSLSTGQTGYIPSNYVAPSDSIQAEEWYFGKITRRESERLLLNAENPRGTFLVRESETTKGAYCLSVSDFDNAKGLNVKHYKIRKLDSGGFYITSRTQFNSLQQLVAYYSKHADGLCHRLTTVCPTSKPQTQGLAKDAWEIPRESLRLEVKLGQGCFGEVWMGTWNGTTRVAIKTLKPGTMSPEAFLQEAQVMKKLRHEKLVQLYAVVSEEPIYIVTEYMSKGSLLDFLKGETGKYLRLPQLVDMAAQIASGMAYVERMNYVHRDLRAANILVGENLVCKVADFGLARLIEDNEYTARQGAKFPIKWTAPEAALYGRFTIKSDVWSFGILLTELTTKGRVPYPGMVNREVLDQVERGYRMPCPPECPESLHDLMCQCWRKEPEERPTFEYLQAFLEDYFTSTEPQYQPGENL
Chain of Vascular endothelial growth factor receptor 1 (Homo sapiens) (P17948 whole entry): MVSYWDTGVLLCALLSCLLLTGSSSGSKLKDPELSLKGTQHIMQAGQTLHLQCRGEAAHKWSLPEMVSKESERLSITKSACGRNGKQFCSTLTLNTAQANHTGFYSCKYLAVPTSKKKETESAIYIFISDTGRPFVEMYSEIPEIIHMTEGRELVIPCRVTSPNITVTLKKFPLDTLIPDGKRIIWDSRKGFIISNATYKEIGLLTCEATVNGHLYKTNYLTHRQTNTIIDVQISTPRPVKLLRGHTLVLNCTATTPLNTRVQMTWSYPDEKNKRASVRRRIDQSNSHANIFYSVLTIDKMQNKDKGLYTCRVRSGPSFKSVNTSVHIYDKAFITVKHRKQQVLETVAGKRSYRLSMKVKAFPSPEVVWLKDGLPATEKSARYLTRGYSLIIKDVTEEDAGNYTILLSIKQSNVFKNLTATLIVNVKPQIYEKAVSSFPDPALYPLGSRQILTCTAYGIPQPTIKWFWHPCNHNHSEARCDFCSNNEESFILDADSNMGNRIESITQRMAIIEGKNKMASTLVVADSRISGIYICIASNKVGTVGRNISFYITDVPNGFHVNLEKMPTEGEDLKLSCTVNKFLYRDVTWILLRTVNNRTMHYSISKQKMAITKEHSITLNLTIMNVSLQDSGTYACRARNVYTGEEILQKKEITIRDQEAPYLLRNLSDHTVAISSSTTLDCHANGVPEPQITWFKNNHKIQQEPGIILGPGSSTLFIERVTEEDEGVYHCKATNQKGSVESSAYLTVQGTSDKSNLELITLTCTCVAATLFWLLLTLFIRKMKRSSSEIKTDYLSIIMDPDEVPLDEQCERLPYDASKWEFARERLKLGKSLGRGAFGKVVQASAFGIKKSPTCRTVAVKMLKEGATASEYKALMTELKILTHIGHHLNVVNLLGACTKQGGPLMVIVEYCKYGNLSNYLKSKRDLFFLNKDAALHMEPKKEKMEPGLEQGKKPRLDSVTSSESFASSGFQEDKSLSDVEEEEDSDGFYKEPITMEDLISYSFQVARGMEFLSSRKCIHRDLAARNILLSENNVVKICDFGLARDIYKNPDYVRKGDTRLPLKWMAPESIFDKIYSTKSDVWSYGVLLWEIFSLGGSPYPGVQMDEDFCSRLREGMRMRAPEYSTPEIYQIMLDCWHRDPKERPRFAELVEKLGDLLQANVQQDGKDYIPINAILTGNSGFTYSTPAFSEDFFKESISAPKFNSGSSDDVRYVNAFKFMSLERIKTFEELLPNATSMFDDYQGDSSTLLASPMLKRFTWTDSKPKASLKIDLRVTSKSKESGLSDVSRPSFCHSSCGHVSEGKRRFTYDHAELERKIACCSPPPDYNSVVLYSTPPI

Turning to `O=C1NCc2c1c1c3ccc(O)cc3[nH]c1c1[nH]c3ccccc3c21`, the inhibition in assay [1] is < 50%; in [2], < 50%; in [3], < 50%; in [4] it was 80%; in assay [5] it was < 50%; in [6], 80%. Further, the inhibition was 80% in [7]; 80% in assay [9]; < 50% in assay [10]; < 50% in assay [11]; > 80% in assay [12]; < 50% in [13]. In addition, the inhibition in assay [14] is < 50%; in [15], 80%; in assay [16] it was < 50%. Further, the half-maximal inhibitory concentration (IC50) in the assay with HeLa is 5.4 µg/mL (≈ 16.5 µM); in the assay on Jurkat it was 1.34 µg/mL (≈ 4.09 µM); in assay [8], 7.6 µg/mL (≈ 23.2 µM).
For the compound `O=C1NC(=O)c2c1c1c3ccccc3[nH]c1c1[nH]c3cc(O)c(O)cc3c21`, the inhibition in assay [1] is < 50%; in [2], < 50%; in [17], 80%; in assay [3], < 50%; in assay [4] it was < 50%; in assay [5] it was < 50%. Besides, the inhibition in [18] is 80%; in assay [9], < 50%; in [10], < 50%; in assay [11] it was < 50%; in [13], < 50%; in assay [14], < 50%. In addition, the inhibition in assay [15], in assay [16] and in assay [19] was < 50% throughout. In addition, the figures for the IC50 (in the assay with HeLa; in the assay on Jurkat; in [8]) were 2.1 µg/mL (≈ 5.88 µM), 0.84 µg/mL (≈ 2.35 µM) and 25 µg/mL (≈ 70 µM), respectively.
With `COC(=O)c1[nH]c(C(=O)OC)c(-c2c[nH]c3ccc(O)cc23)c1-c1c[nH]c2ccccc12` [LYCOGARUBIN B], the inhibition in assay [1], in assay [3], in [4], in assay [5], in [6] and in assay [9] was < 50% throughout. For the same compound, the inhibition in [10] is 50%; in assay [11], < 50%; in assay [12] it was < 50%; in assay [13], < 50%; in assay [14], < 50%; in [15], < 50%. Also, the inhibition in assay [16] and in assay [19] was < 50% each time. For the same compound, the IC50 was 18 µg/mL (≈ 41.9 µM) in the assay with Jurkat and > 25 µg/mL in assay [8].
Take `COC(=O)c1[nH]c(C(=O)OC)c(-c2c[nH]c3ccccc23)c1-c1c[nH]c2ccccc12` [LYCOGARUBIN C]: the inhibition in assay [1], in [2], in assay [3], in assay [4], in assay [6] and in assay [9] was < 50% throughout. Besides, the inhibition in assay [10], in assay [11], in assay [12], in assay [13], in [14] and in assay [15] was < 50% each time. For the same compound, the inhibition in [16] and in assay [19] was < 50% each time. Also, the IC50 is 15.3 µg/mL (≈ 37 µM) in the assay with Jurkat and > 25 µg/mL in assay [8].
As for `O=C1NC(=O)C(c2c[nH]c3ccccc23)=C1c1c[nH]c2ccccc12` [RO-316233], the inhibition was < 50% in assay [1]; < 50% in assay [2]; < 50% in assay [3]; < 50% in [4]; < 50% in assay [5]; 80% in assay [9]. For the same compound, the inhibition is < 50% in assay [10]; < 50% in assay [11]; 80% in assay [12]; < 50% in assay [14]; < 50% in assay [15]; < 50% in [16]. Moreover, the inhibition in assay [19] was < 50%. Further, the values for the IC50 (in the assay with Jurkat; in assay [8]) were 6.3 µg/mL (≈ 19.2 µM) and > 25 µg/mL, respectively.

For orientation: inhibition means the share of the control response that was lost under treatment. Broadly, the IC50 is the concentration that gives 50% inhibition. Lower therefore signals higher potency.
